Experiment [1] is described as follows: PAX5 activity inhibitors, dose response, selectivity assay for PAX8 inhibitor project, cell-based, plate reader, dry powder samples (AID 743047).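 Further: HEK293 cells carrying a Pax5 driven CD19 promoter luciferase reporter; potency of inhibitors that lower reporter luminescence.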 Type of experiment: functional.
Experiment [2] in a line: cytotoxicity dependent on PAX8, dose response, cell-based, plate reader, dry powder (AID 743049). Type of experiment: functional.
Experiment [3] in a line: NIH:OVCAR-3 ovarian cancer cell cytotoxicity, dose response, PAX8 inhibitor project, plate reader, dry powder samples (AID 743044). It is filed as functional, cell-based.
Experiment [4] can be described thus: cytotoxicity in COV434 cells, dose response, cytotoxicity control for PAX8 inhibitor project, cell-based, plate reader, dry powder, SA7 (AID 743145). Type of experiment: functional.
Experiment [5] is described as follows: P. falciparum 3D7-ScDHODH growth inhibitors, dose response, SYBR Green, dry powder samples (AID 1159570).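 Further: parasite growth measured after 72 hours of compound exposure.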 Type of experiment: functional, cell-based.
Experiment [6] addresses Paired box protein Pax-8 (Homo sapiens, UniProt Q06710). Briefly: inhibitors of PAX8-driven TPO luciferase reporter, dose response, RMG-I cells, cherry-pick (AID 687027).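 Further: luciferase reporter driven by Pax8 target thyroperoxidase promoter measured by SteadyGlo luminescence.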 It is filed as functional, cell-based. In general terms: In a reporter assay the amount or activity of a reporter protein is the signal.
The nature of experiment [7]: P. falciparum Dd2 growth inhibitors, dose response, SYBR Green, cherry-picked samples (AID 1159567). It is filed as functional, cell-based.
Experiment [8] in a line: HepG2 cell cytotoxicity, dose response, cytotoxicity control, plate reader, dry powder samples (AID 1159569).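 Further: inhibitor potency with signal falling toward the positive control level.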 It is filed as functional, cell-based.
The nature of experiment [9]: cytotoxicity in COV362 ovarian cancer cells, dose response, cytotoxicity control for PAX8 inhibitor project, cell-based, plate reader, dry powder, SA12 (AID 743144). Type of experiment: functional.
A short description of experiment [10]: PAX2 cell-based inhibition, dose response, selectivity assay for PAX8 inhibitor project, plate reader, dry powder samples (AID 743048).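 Further: HEK293 cells carrying a WT1 promoter luciferase reporter driven by expressed Pax2; potency is for inhibition of Pax2 driven reporter signal.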 It is filed as functional.
Experiment [11] can be described thus: cytotoxicity in OV-90 ovarian cancer cells, dose response, PAX8 inhibitor project, cell-based, plate reader, dry powder, SA8 (AID 743149). Type of experiment: functional.
Experiment [12] in a line: HepG2 cell cytotoxicity, dose response, cytotoxicity control, cherry-picked samples (AID 1159577). It is filed as functional, cell-based.
Experiment [13] is described as follows: P. falciparum ATP4 D1247Y mutant growth inhibitors, dose response, NITD609-resistant line, SYBR Green, dry powder (AID 1159571).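 Further: parasites synchronized at ring stage by sorbitol before testing.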 It is filed as functional, cell-based.
Experiment [14] is described as follows: cytotoxicity in OVCAR4 cells, dose response, cytotoxicity control for PAX8 inhibitor project, cell-based, plate reader, dry powder, SA11 (AID 743150). It is filed as functional. The conditions noted are these: OVCAR-4.
The nature of experiment [15]: P. falciparum Dd2 growth inhibitors, dose response, SYBR Green, dry powder samples (AID 1159566).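 Further: potency for growth inhibition with lower SYBR green DNA signal.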 It is filed as functional, cell-based.
A short description of experiment [16]: T. cruzi growth inhibition in host cells, dose response, cell-based, plate reader, dry powder, set 2 (AID 652275). It is filed as functional.
Experiment [17] in a line: T. cruzi intracellular amastigote growth inhibition, dose response, imaging, CA-I/72 strain, bovine embryo skeletal muscle, dry powder (AID 651885). It is filed as functional, cell-based.
Experiment [18] can be described thus: growth inhibition of intracellular T. cruzi, dose response, cell-based, plate reader, dry powder samples (AID 651845). Type of experiment: functional.
The nature of experiment [19]: CEM21 cell cytotoxicity, dose response, cytotoxicity control, plate reader, dry powder (AID 687026). Type of experiment: functional, cell-based.
A short description of experiment [20]: HEK293 cell cytotoxicity, dose response, cytotoxicity control, cherry-picks, set 5 (AID 1053117). It is filed as functional, cell-based.
The nature of experiment [21]: inhibitors of fibronectin matrix deposition, dose response, AH1F cells, Alexa488-FN fluorescence, cherry-picks (AID 1035475). It is filed as functional, cell-based.
The nature of experiment [22]: Late stage assay provider results from the probe development effort to identify selective inhibitors of heat shock protein 90 (HSP90): Absorbance-based cell proliferation assay in MCF7 cells. Type of experiment: functional.
The nature of experiment [23]: Late stage assay provider results from the probe development effort to identify selective inhibitors of heat shock protein 90 (HSP90): Absorbance-based cell proliferation assay in SKBR3 cells. Type of experiment: functional. To be noted: SK-BR-3.

The source made the active and inactive calls. For most assays here, no stated cut-off is given here; in the data, actives have a measured AC50 and inactives only a lower limit.

What is called AC50 is the concentration at which the activity in the assay is half-maximal. Broadly, the IC50 is the midpoint of a concentration-inhibition curve.

Sequence of Paired box protein Pax-8 (Q06710 whole entry): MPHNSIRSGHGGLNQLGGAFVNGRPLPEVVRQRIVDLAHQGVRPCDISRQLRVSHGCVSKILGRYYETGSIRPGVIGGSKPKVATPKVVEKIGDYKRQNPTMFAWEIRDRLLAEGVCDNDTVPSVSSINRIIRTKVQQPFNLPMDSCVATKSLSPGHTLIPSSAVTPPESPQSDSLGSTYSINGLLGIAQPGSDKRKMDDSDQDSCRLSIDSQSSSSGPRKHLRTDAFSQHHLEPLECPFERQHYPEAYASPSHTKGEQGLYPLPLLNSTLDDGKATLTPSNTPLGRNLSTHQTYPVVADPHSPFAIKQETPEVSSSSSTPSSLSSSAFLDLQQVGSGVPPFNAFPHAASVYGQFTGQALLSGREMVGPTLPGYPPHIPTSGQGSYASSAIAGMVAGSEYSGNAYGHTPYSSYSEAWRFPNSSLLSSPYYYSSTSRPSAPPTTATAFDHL

On to `COc1cccc(C#Cc2ccc([C@H]3[C@@H](CO)N(C(=O)C4CCCCC4)[C@H]3C#N)cc2)c1`, for which the concentration at half-maximal activity (AC50) in experiment [1] is 11.9 µM (active); in experiment [2], 8.27 µM (active); in [3], 46.6 µM (active); in experiment [4] it was 17.4 µM (active); in experiment [5] it was 1.86 µM (active); in experiment [6] it was 3.39 µM (active). Moreover, the half-maximal activity concentration (AC50) in experiment [7] is 0.833 µM (active); in experiment [8] it was 46.6 µM (active); in experiment [9], 23.2 µM (active); in experiment [10], 16.8 µM (active); in [11], 24.7 µM (active); in experiment [12], 36.2 µM (active). In addition, the AC50 in experiment [13] was 2.15 µM (active); in experiment [14], 7.73 µM (active); in experiment [15], 1.21 µM (active).
For the molecule `CCCn1ncc(CN(C)C[C@H]2Oc3c(NC(=O)c4ccncc4)cccc3C(=O)N(C(C)C)C[C@@H]2C)c1C`, the concentration at half-maximal activity (AC50) in experiment [16] and in experiment [18] was 0.521 µM (active) throughout. In addition, the IC50 in experiment [17] was 2.92 µM (inconclusive).
On to `CCOc1ccc(S(=O)(=O)NC(C)c2ccncc2)cc1` (stereo not drawn), for which the AC50 in experiment [19] was > 70 µM (inactive).
In the case of `C[C@@H]1CN([C@@H](C)CO)C(=O)c2cc(NC(=O)C3CCCCC3)ccc2O[C@@H]1CN(C)Cc1ccc(-c2ccccc2)cc1`, the AC50 was > 52 µM (inactive) in experiment [20] and > 70 µM (inactive) in experiment [21].
On to `O=C1OC(=O)/C(=C\NCCc2ccccc2)C=C1Br`, for which the figures for the 50% inhibitory concentration (IC50) in [22] and in [23] were 2.1 µM (active) and 3.7 µM (active), respectively.
